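Results reflect a 48-hour exposure of cells in 96-well plates to compound at five concentrations. GI50 is the concentration that inhibits growth by half. TGI denotes the concentration required for complete inhibition of growth.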
Tests used:
Test in all cases: growth of human tumour cells (NCI), 48 h
[1] = tested on: CAKI-1 renal
[2] = tested on: SK-MEL-28 melanoma
[3] = tested on: A549 NSCLC
[4] = tested on: HCC-2998 colon
[5] = tested on: TK-10 renal
[6] = tested on: OVCAR-8 ovarian
[7] = tested on: MDA-MB-468 breast
[8] = tested on: SF-539 CNS
[9] = tested on: HL-60(TB) leukemia
[10] = tested on: DU-145 prostate
[11] = tested on: SK-OV-3 ovarian
[12] = tested on: SK-MEL-5 melanoma
[13] = tested on: LOX IMVI melanoma
[14] = tested on: SF-295 CNS
[15] = tested on: M14 melanoma
[16] = tested on: HS 578T breast
[17] = tested on: SNB-19 CNS
[18] = tested on: HCT-116 colon
[19] = tested on: NCI/ADR-RES ovarian
[20] = tested on: NCI-H460 lung
[21] = tested on: HOP-92 NSCLC
[22] = tested on: NCI-H226 lung
[23] = tested on: MOLT-4 leukemia
[24] = tested on: 786-0 renal
[25] = tested on: BT-549 breast
[26] = tested on: MDA-MB-231 breast
[27] = tested on: HCT-15 colon
[28] = tested on: KM12 colon
[29] = tested on: SR leukemia
[30] = tested on: A498 renal
[31] = tested on: U251 CNS
[32] = tested on: SNB-75 CNS
[33] = tested on: COLO 205 colon
[34] = tested on: UACC-257 melanoma
[35] = tested on: SW-620 colon
[36] = tested on: UO-31 renal
[37] = tested on: OVCAR-4 ovarian
[38] = tested on: T-47D breast
[39] = tested on: RPMI-8226 leukemia
[40] = tested on: CCRF-CEM leukemia
[41] = tested on: UACC-62 melanoma
[42] = tested on: RXF 393 renal
[43] = tested on: NCI-H522 lung
[44] = tested on: IGROV1 ovarian
[45] = tested on: MCF7 breast
[46] = tested on: SF-268 CNS
[47] = tested on: NCI-H23 lung
[48] = tested on: ACHN renal
[49] = tested on: MALME-3M melanoma
[50] = tested on: OVCAR-5 ovarian
[51] = tested on: MDA-MB-435
[52] = tested on: HOP-62 NSCLC
[53] = tested on: SN12C renal
[54] = tested on: SK-MEL-2 melanoma
[55] = tested on: HT29 colon
[56] = tested on: PC-3 prostate
[57] = tested on: OVCAR-3 ovarian
[58] = tested on: EKVX NSCLC

O=C(NN1C(=O)/C(=C/C=C/c2ccc([N+](=O)[O-])o2)SC1=S)c1ccc([N+](=O)[O-])cc1
GI50 [1]: 704 nM
TGI [1]: 1940 nM
GI50 [2]: 1100 nM
TGI [2]: 2400 nM
GI50 [3]: 1860 nM
TGI [3]: 4090 nM
GI50 [4]: 389 nM
TGI [4]: 1290 nM
GI50 [5]: 1580 nM
TGI [5]: 2970 nM
GI50 [6]: 266 nM
TGI [6]: 964 nM
GI50 [7]: 1310 nM
TGI [7]: 2790 nM
GI50 [8]: 263 nM
TGI [8]: 745 nM
GI50 [9]: 1800 nM
TGI [9]: 6810 nM
GI50 [10]: 936 nM
TGI [10]: 2290 nM
GI50 [11]: 1910 nM
TGI [11]: 3810 nM
GI50 [12]: 258 nM
TGI [12]: 760 nM
GI50 [13]: 213 nM
TGI [13]: 499 nM
GI50 [14]: 1700 nM
TGI [14]: 3180 nM
GI50 [15]: 189 nM
TGI [15]: 396 nM
GI50 [16]: 1750 nM
TGI [16]: 5770 nM
GI50 [17]: 1460 nM
TGI [17]: 2810 nM
GI50 [18]: 156 nM
TGI [18]: 332 nM
GI50 [19]: 765 nM
TGI [19]: 3110 nM
GI50 [20]: 341 nM
TGI [20]: 1240 nM
GI50 [21]: 310 nM
TGI [21]: 1210 nM
GI50 [22]: 548 nM
TGI [22]: 1620 nM
GI50 [23]: 322 nM
TGI [23]: 1940 nM
GI50 [24]: 247 nM
TGI [24]: 645 nM
GI50 [25]: 189 nM
TGI [25]: 489 nM
GI50 [26]: 185 nM
TGI [26]: 368 nM
GI50 [27]: 130 nM
TGI [27]: 315 nM
GI50 [28]: 925 nM
TGI [28]: 2420 nM
GI50 [29]: 21.3 nM
TGI [29]: > 100000 nM
GI50 [30]: 3280 nM
TGI [30]: 10900 nM
GI50 [31]: 381 nM
TGI [31]: 1660 nM
GI50 [32]: 1250 nM
TGI [32]: 3380 nM
GI50 [33]: 301 nM
TGI [33]: 826 nM
GI50 [34]: 1440 nM
TGI [34]: 3210 nM
GI50 [35]: 188 nM
TGI [35]: 405 nM
GI50 [36]: 1080 nM
TGI [36]: 2290 nM
GI50 [37]: 1450 nM
TGI [37]: 2900 nM
GI50 [38]: 1800 nM
TGI [38]: 4400 nM
GI50 [39]: 344 nM
TGI [39]: 2110 nM
GI50 [40]: 262 nM
TGI [40]: 1050 nM
GI50 [41]: 218 nM
TGI [41]: 607 nM
GI50 [42]: 521 nM
TGI [42]: 1860 nM
GI50 [43]: 187 nM
TGI [43]: 376 nM
GI50 [44]: 601 nM
TGI [44]: 1610 nM
GI50 [45]: 363 nM
TGI [45]: 1690 nM
GI50 [46]: 1560 nM
TGI [46]: 4450 nM
GI50 [47]: 289 nM
TGI [47]: 916 nM
GI50 [48]: 1030 nM
TGI [48]: 2200 nM
GI50 [49]: 181 nM
TGI [49]: 377 nM
GI50 [50]: 1440 nM
TGI [50]: 2750 nM
GI50 [51]: 243 nM
TGI [51]: 633 nM
GI50 [52]: 771 nM
TGI [52]: 2130 nM
GI50 [53]: 175 nM
TGI [53]: 390 nM
GI50 [54]: 239 nM
TGI [54]: 785 nM
GI50 [55]: 225 nM
TGI [55]: 513 nM
GI50 [56]: 1230 nM
TGI [56]: 3200 nM
GI50 [57]: 491 nM
TGI [57]: 1750 nM
GI50 [58]: 639 nM
TGI [58]: 1880 nM

— PubChem BioAssay (NCI)
